The source of these data is US5635161A, “Aerosol drug formulations containing vegetable oils” (priority 1995, dated 1997).

For orientation: Cmax means the highest concentration seen after dosing. For orientation: Tmax means the time at which the peak concentration occurs. By AUC(0-t) is commonly meant the area under the concentration-time curve up to a stated or last time point. As usually defined, the bioavailability is dose-corrected exposure relative to a reference, in per cent.

Entries after “also recorded” stand apart in the source; their conditions may differ.

Data set [1] can be described thus: Bioavailability / plasma pharmacokinetics after inhalation (MDI) versus i.v. in tracheostomized dogs. The format is in vivo. Conditions: dog. The procedure: All quantitative analyses for 5-LO inhibitor #1 formulations were performed by high pressure liquid chromatography (HPLC). The mobile phase composition was 30% v/v tetrahydrofuran in water with 0.128% w/v tetramethylammonium perchlorate and 0.075% v/v trifluoroacetic acid. A Regis Little Champ™ C-18, 4.6×50 mm column was used. The mobile phase flow rate was maintained at 1.0 milliliters/minute (mL/min). Detection wavelength was set at 282 nanometers (nm) and typical injection volumes were between 25 to 50 microliters (μL). Under these conditions, the standard curve for the parent drug was linear between the range of 3 to 75 micrograms/milliliter (μg/mL) (r^2 ≥0.990), with a run time of about 8 minutes.
Using a test preparation containing 25 mg/mL 5-LO inhibitor #1 and 2.5 mg/mL olive oil in HFC-134a propellant, pulmonary absorption and in vivo distribution (i.e. bioavailibility factors) were assessed in four tracheostomized dogs (Marshall Farms, N.Y.) weighing about 10 kilograms (kg) each. Four sprays, delivering 1.25 mg of active 5-LO inhibitor #1/spray, were delivered to the trachea of each dog, resulting in a total drug dose of about 0.5 mg/kg. Blood samples were collected at 0.25, 0.5, 1, 2, 3.5, 5, 7, 9, 12 and 24 hours after dosing and the plasma assayed for drug concentration using the HPLC method described in Example 1A above.

Experiment in data set [2]: as above
As to conditions: dog, in vivo.

Data set [3] is described as follows: Visual dispersion quality (physical stability) of MDI formulations in HFA-134a after 24 hours. The format is physicochemical. The arrangement: key: Poor: Phase separation; top phase clear, bottom phase containing solids; Fair: Partial phase separation; cloudiness in the top phase; Good: Grainy appearance; no phase separation; Clear solution. The procedure:
MDI formulations for performance testing were prepared in the following manner: For each test formulation, about 5 mL (or 7.4 grams) of glass beads were placed into a suitable glass aerosol container (vial), along with 100 mg to 250 mg drug and a vegetable oil in the amounts needed to produce the desired final concentrations. All vegetable oils used in the following examples were purchased from Sigma® Chemical Company (St. Louis, Mo., 63178). The vials were crimped shut with valves having delivery values (volumes per spray) of 50 μL, and then charged with 10 mL of HFA-134a propellant. The filled vials were then shaken for 24 hours at about 50 cycles/minute to mill and disperse the drug. […] The formulations were then used in the in vitro or in vivo studys described below.
A determination of the effect of vegetable oils on the physical stability of several MDI formulations prepared with HFA-134a was conducted as follows: A vegetable oil was combined either with (1) leuprolide acetate (Table 2a) or (2) 5-LO inhibitor #1 (Table 2b) in the amounts indicated and placed in appropriate transparent aerosol containers (vials). […] The dispersion quality in each preparation was evaluated visually after 24 hours using the following criteria: […]

Setting [4] is: in vivo, inhaled or intranasal, 0.5 mg/kg.
Setting [5] is: in vivo, inhaled or intranasal, 0.5 mg/kg, Plasma concentration (5-LO Inhibitor Levels).
The mark [6] stands for this setting: inhaled or intranasal, 0.5 mg/kg, Plasma concentration (5-LO Inhibitor Levels).
Where [7] appears, read: iv, 0.5 mg/kg, Plasma concentration (5-LO Inhibitor Levels).

In the case of `CC(C#Cc1ccc(Cc2ccc(F)cc2)s1)N(O)C(N)=O` (stereo not drawn) [5-LO inhibitor #1, N-[3-[5-(4-fluorophenylmethyl)-2-thienyl]-1-methyl-2-propynyl]-N-hydroxyurea], in data set [1] (setting [4]), the Cmax came to 150 ± 30 ng/mL and the Tmax was 10.4 ± 9.23 h. In addition, in data set [1] (in vivo, inhaled or intranasal, 0.5 mg/kg, 1 h), the “Plasma concentration (5-LO Inhibitor Levels)” value was found to be 30 ± 20 ng/mL. In data set [1] (setting [5]), the concentration at 0.5 h came to 10 ± 10 ng/mL, the concentration at 1 h amounted to 30 ng/mL, the concentration at 7 h came out at 120 ± 70 ng/mL and the concentration at 9 h came to 90 ± 50 ng/mL. Moreover, the concentration at 24 h in data set [1] (setting [5]) worked out at 50 ± 60 ng/mL. The compound further displayed a concentration at 12 h in data set [1] (in vivo, inhaled or intranasal, 0.5 mg/kg, drug levels maintained) of at least 70 ng/mL. Also, the “onset and absorption from the lungs (in words)” value in data set [1] (inhalation formulation) is “fast onset of drug absorption; also recorded: rapid onset and prolonged absorption of drug from the lungs”. In data set [2], the “duration of drug absorption after dosing” value is 6 to 8 h. Also, the AUC(0-t) at 24 h in data set [2] (inhaled or intranasal, 0.5 mg/kg) is 1600 ± 400 ng·h/mL. The compound also registered a bioavailability in data set [2] (inhaled or intranasal, 0.5 mg/kg, Bioavailability (absolute lung bioavailability versus i.v.)) of around 64%. For the same compound, in data set [2] (setting [6]), the concentration at 2 h was determined as 40 ± 30 ng/mL, the concentration at 3.5 h amounted to 90 ± 60 ng/mL, the concentration at 5 h stood at 80 ± 60 ng/mL and the concentration at 12 h is 70 ± 40 ng/mL. In data set [2] (iv, 0.5 mg/kg), this compound returned an AUC(0-t) at 24 h of 5060 ± 1040 ng·h/mL. The “Plasma concentration (5-LO Inhibitor Levels)” value in data set [2] (iv, 0.5 mg/kg, 0 min) was 0 ng/mL. For the same compound, in data set [2] (iv, 0.5 mg/kg, 0.25 h), the “Plasma concentration (5-LO Inhibitor Levels)” value turned out to be 590 ± 50 ng/mL. Besides, in data set [2] (iv, 0.5 mg/kg, 12 h), the “Plasma concentration (5-LO Inhibitor Levels)” value was 180 ± 60 ng/mL. In data set [2] (setting [7]), this compound gave a concentration at 0.08 h of 630 ± 60 ng/mL, a concentration at 0.25 h of around 600 ng/mL, a concentration at 0.5 h of 600 ± 40 ng/mL and a concentration at 1 h of 520 ± 40 ng/mL. In data set [2] (setting [7]), the concentration at 2 h worked out at 480 ± 50 ng/mL, the concentration at 4 h came to 370 ± 60 ng/mL, the concentration at 6 h was 300 ± 50 ng/mL and the concentration at 8 h worked out at 230 ± 50 ng/mL. For the same compound, in data set [2] (setting [7]), the concentration at 12 h was around 200 ng/mL and the concentration at 24 h worked out at 70 ± 20 ng/mL. The “Dispersion Quality (measured after 24 Hours)” value in data set [3] (Table 2b, 5-LO inhibitor #1 formulations in HFA-134a) was “Poor”.

Regarding `CCNC(=O)[C@@H]1CCCN1C(=O)[C@H](CCCNC(=N)N)NC(=O)[C@H](CC(C)C)NC(=O)[C@@H](CC(C)C)NC(=O)[C@H](Cc1ccc(O)cc1)NC(=O)[C@H](CO)NC(=O)[C@H](Cc1c[nH]c2ccccc12)NC(=O)[C@H](Cc1c[nH]cn1)NC(=O)[C@@H]1CCC(=O)N1` [Leuprolide Acetate, leuprolide acetate, reference compound], the “Dispersion Quality (measured after 24 Hours)” value in data set [3] (Table 2a, leuprolide acetate formulations (or excipients alone) in HFA-134a) is on record as “Poor”.
